Laboratory results: ChEMBL document CHEMBL2073852, “Transport of fluorescein methotrexate by multidrug resistance-associated protein 3 in IEC-6 cells” (Am J Physiol Gastrointest Liver Physiol, 2003)

What was measured:
Format in all cases: functional, cell membranes, Membrane vesicle
[1] = molecular target: T1, Mrp3 (ATP-binding cassette sub-family C member 3, ABCC3) (Rattus norvegicus, UniProt O88563); assay: TP_TRANSPORTER: inhibition of F-MTX uptake (F-MTX: 5.0 uM, E217betaG: 75.0 uM) in membrane vesicles from Mrp3-Sf9 cells; design: scale not given: the % may be the effect or the level left; settings: membrane vesicles from Mrp3-expressing Sf9 cells, probe F-MTX; read-out: Activity
[2] = molecular target: ATP-binding cassette sub-family C member 3 (Rattus norvegicus, UniProt O88563); assay: TP_TRANSPORTER: inhibition of F-MTX uptake (F-MTX: 5.0 uM, E217betaG: 75.0 uM) in membrane vesicles from IEC-6 cells; design: scale not given: the % may be the effect or the level left; settings: iec-6, 75 µM
[3] = molecular target: T1, Mrp3 (ATP-binding cassette sub-family C member 3, ABCC3); assay: TP_TRANSPORTER: inhibition of F-MTX uptake (F-MTX: 5.0 uM, MK-571: 100.0 uM) in membrane vesicles from Mrp3-Sf9 cells; design: scale not given: the % may be the effect or the level left; settings: membrane vesicles from Mrp3-expressing Sf9 cells, probe F-MTX; read-out: Activity
[4] = molecular target: T1, Mrp3 (ATP-binding cassette sub-family C member 3, ABCC3); assay: TP_TRANSPORTER: inhibition of F-MTX uptake (F-MTX: 5.0 uM, MK-571: 100.0 uM) in membrane vesicles from IEC-6 cells; design: scale not given: the % may be the effect or the level left; settings: probe F-MTX, read-out: Activity
[5] = substrate: CN(Cc1cnc2nc(N)nc(N)c2n1)c1ccc(C(=O)N[C@@H](CCC(=O)O)C(=O)O)cc1; assay: TP_TRANSPORTER: uptake in membrane vesicles from Mrp3-Sf9 cells
[6] = substrate: CN(Cc1cnc2nc(N)nc(N)c2n1)c1ccc(C(=O)N[C@@H](CCC(=O)O)C(=O)O)cc1; assay: TP_TRANSPORTER: uptake in membrane vesicles from IEC-6 cells

Question: What does the source list for C[C@]12CC[C@@H]3c4ccc(O)cc4CC[C@H]3[C@@H]1CC[C@@H]2O[C@@H]1O[C@H](C(=O)O)[C@@H](O)[C@H](O)[C@H]1O [ESTRADIOL 17B GLUCURONIDE]?
Answer: activity at 75 µM [1]: 19.2%; Activity [2]: 41.7%

Question: Which activity at 100 µM [3] does the source give for CN(C)C(=O)CCSC(SCCC(=O)O)c1cccc(/C=C/c2ccc3ccc(Cl)cc3n2)c1 (stereo unspecified) [MK-571] here?
Answer: 4.9%

Question: What about the activity at 100 µM [4] of the same molecule?
Answer: 9.5%

B1: ATP-binding cassette sub-family C member 3 (Rattus norvegicus) (protein)
chain: MDRLCGSGELGSKFWDSNLTVYTNTPDLTPCFQNSLLAWVPCIYLWAALPCYLFYLRHHRLGYIVLSCLSRLKTALGVLLWCISWVDLFYSFHGLVHGSSPAPVFFITPLLVGITMLLATLLIQYERLRGVRSSGVLIIFWLLCVICAIIPFRSKILLALAEGKILDPFRFTTFYIYFALVLCAFILSCFQEKPPLFSPENLDTNPCPEASAGFFSRLSFWWFTKLAILGYRRPLEDSDLWSLSEEDCSHKVVQRLLEAWQKQQTQASGPQTAALEPKIAGEDEVLLKARPKTKKPSFLRALVRTFTSSLLMGACFKLIQDLSPSSTHSCSASSSGLFRPHGPYWWGFLLAGLMFVSSTMQTLILHQHYHCIFVMALRIRTAIIGVIYRKALTITNSVKREYTVGEMVNLMSVDAQRFMDVSPFINLLWSAPLQVILAIYFLWQILGPSALAGVAVIVLLIPLNGAVSMKMKTYQVQQMKFKDSRIKLMSEILNGIKVLKLYAWEPTFLEQVEGIRQGELQLLRKGAYLQAISTFIWVCTPFMVTLITLGVYVCVDKNNVLDAEKAFVSLSLFNILKIPLNLLPQLISGMTQTSVSLKRIQDFLNQDELDPQCVERKTISPGRAITIHNGTFSWSKDLPPTLHSINIQIPKGALVAVVGPVGCGKSSLVSALLGEMEKLEGAVSVKGSVAYVPQQAWIQNCTLQENVLFGQPMNPKRYQQALETCALLADLDVLPGGDQTEIGEKGINLSGGQRQRVSLARAVYSDANIFLLDDPLSAVDSHVAKHIFDQVIGPEGVLAGKTRVLVTHGISFLPQTDFIIVLADGQITEMGHYSELLQHDGSFANFLRNYAPDENQEANEGVLQHANEEVLLLEDTLSTHTDLTDTEPAIYEVRKQFMREMSSLSSEGEGQNRPVLKRYTSSLEKEVPATQTKETGALIKEEIAETGNVKLSVYWDYAKSVGLCTTLFICLLYAGQNAVAIGANVWLSAWTNDVEEHGQQNNTSVRLGVYATLGILQGLLVMLSAFTMVVGAIQAARLLHTALLHNQIRAPQSFFDTTPSGRILNRFSKDIYVIHEVLAPTILMLFNSFYTSISTIVVIVASTPLFCVVVLPLAVFYGFVQRFYVATSRQLKRLESVSRSPIFSHFSETVTGTSVIRAYGRVQDFKVLSDAKVDSNQKTTYPYIASNRWLGVHVEFVGNCVVLFSALFAVIGRNSLNPGLVGLSVSYALQVTLSLNWMIRTLSDLESNIIAVERVKEYSKTETEAPWVLESNRAPEGWPRSGVVEFRNYSVRYRPGLELVLKNLTLHVQGGEKVGIVGRTGAGKSSMTLCLFRILEAAEGEIFIDGLNVAHIGLHDLRSQLTIIPQDPILFSGTLRMNLDPFGRYSDEDIWRTLELSHLSAFVSSQPTGLDFQCSEGGDNLSVGQRQLVCLARALLRKSRVLVLDEATAAIDLETDDLIQGTIRTQFEDCTVLTIAHRLNTIMDYNRVLVLDKGVVAEFDSPVNLIAAGGIFYGMAKDAGLA
Question: What does the source list for B1?
Answer: Km [5]: 4.5 µM; Km [6]: 11.7 µM
